Reference: the supplement of paper PMC11061612

Assays:
[1] = system: ATN-1 (T-Lymphoblastic Leukemia); experiment: Bliss excess, mean over the matrix (fraction); higher = more synergy
Outline: (§1)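 After 24 hours at 37°C and 5% CO2 in 1536-well plates, cells in DMEM/F12 or RPMI plus 10% FBS received two-drug dose matrices for 72 hours. Viability came from CellTiter-Glo 2.0 luminescence and was scaled as inhibition, anchored at 0 by vehicle wells and at 1 by blank wells. Combination Emax is taken as the second-highest inhibition in the matrix, and Bliss excess as the observed combination effect less EA + EB − EA·EB, with EA and EB the single-agent effects.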

[2] = system: NCI-H2023 (Non-Small Cell Lung Carcinoma); experiment: as above
Outline: as §1

[3] = system: NTERA-2-cl-D1 (Other Solid Carcinomas); experiment: as above
Outline: as §1

MG-63 (Osteosarcoma) = experiment: as above
Outline: as §1

NCI-H2452 (Mesothelioma) = experiment: as above
Outline: as §1

[4] = system: MDA-MB-175-VII (Breast Carcinoma); experiment: as above
Outline: as §1

HT-144 (Melanoma) = experiment: as above
Outline: as §1

[5] = system: OCI-M1 (Acute Myeloid Leukemia); experiment: as above
Outline: as §1

[6] = system: GRANTA-519 (B-Cell Non-Hodgkin's Lymphoma); experiment: combination Emax (second highest fraction inhibited in the dose matrix, 72 h); higher = more inhibition; extreme values may be limits of the assay
Outline: as §1

[7] = system: KNS-62 (Squamous Cell Lung Carcinoma); experiment: as above
Outline: as §1

[8] = system: L-363 (Plasma Cell Myeloma); experiment: as above
Outline: as §1

[9] = system: HT-3 (Cervical Carcinoma); experiment: as above
Outline: as §1

[10] = system: NCI-H2170 (Squamous Cell Lung Carcinoma); experiment: as above
Outline: as §1

[11] = system: IGROV-1 (Ovarian Carcinoma); experiment: as above
Outline: as §1

[12] = system: SUP-HD1 (Hodgkin's Lymphoma); experiment: as above
Outline: as §1

[13] = system: MDA-MB-175-VII (Breast Carcinoma); experiment: as above
Outline: as §1

[14] = system: MRK-nu-1 (Breast Carcinoma); experiment: as above
Outline: as §1

[15] = system: NCI-H1435 (Non-Small Cell Lung Carcinoma); experiment: as above
Outline: as §1

GCIY (Gastric Carcinoma) = experiment: as above
Outline: as §1

[16] = system: HT-1197 (Bladder Carcinoma); experiment: as above
Outline: as §1
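Wherever Bliss excess, mean over the matrix is given: after 72 h of two-drug dosing.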

Row | Compound | Bliss excess [1] | Bliss excess [2] | Bliss excess [3] | Bliss excess (MG-63 (Osteosarcoma)) | Bliss excess (NCI-H2452 (Mesothelioma)) | Bliss excess [4] | Bliss excess (HT-144 (Melanoma)) | Bliss excess [5] | combination Emax [6] | combination Emax [7] | combination Emax [8] | combination Emax [9] | combination Emax [10] | combination Emax [11] | combination Emax [12] | combination Emax [13] | combination Emax [14] | combination Emax [15] | combination Emax (GCIY (Gastric Carcinoma)) | combination Emax [16]
1 | COc1nnc2ccc(N3CCC(c4ccc(OCCN5CCN(C)C(=O)[C@H]5C)cc4)CC3)nn12 [AZD5153] + C[C@@H]1COCCN1C2=NC(=NC(=C2)C3(CC3)[S@](=N)(=O)C)C4=C5C=CNC5=NC=C4 [AZD6738] (first compound max 1 µM, 7x7, partner max 10 µM) | 0.0411 | 0.0692 | 0.0005 | 0.0223 | 0.0045 | 0.0118 | 0.0637 | -0.0165 | 0.906 | 0.625 | 0.849 | 0.601 | 0.788 | 0.843 | 0.823 | 0.529 | 0.814 | 0.3 | 0.794 | 0.724
2 | CN(CCO)CC[C@H](CSc1ccccc1)Nc1ccc(S(=O)(=O)NC(=O)c2ccc(N3CCC([C@@H](O)c4ccccc4-c4ccc(Cl)cc4)CC3)cc2)cc1S(=O)(=O)C(F)(F)F [AZD4320] + C=CCn1c(=O)c2cnc(Nc3ccc(N4CCN(C)CC4)cc3)nc2n1-c1cccc(C(C)(C)O)n1 [AZD1775] (first compound max 1 µM, partner max 1 µM) | 0.0695 | -0.0108 | 0.13 | -0.0262 | 0.0257 | 0.0035 | 0.0392 | 0.0479 | 1 | 0.363 | 1 | 0.264 | 0.8 | 0.894 | 0.952 | 0.32 | 0.174 | 0.801 | 0.708 | 0.622
3 | CN(CCO)CC[C@H](CSc1ccccc1)Nc1ccc(S(=O)(=O)NC(=O)c2ccc(N3CCC([C@@H](O)c4ccccc4-c4ccc(Cl)cc4)CC3)cc2)cc1S(=O)(=O)C(F)(F)F [AZD4320] + Cn1cnc2c(F)c(Nc3ccc(Br)cc3Cl)c(C(=O)NOCCO)cc21 [Selumetinib] (first compound max 1 µM, 7x7, partner max 3 µM) | -0.0611 | 0.0178 | -0.0415 | -0.0179 | -0.0688 | 0.0188 | 0.15 | 0.0503 | 1 | 0.399 | 0.212 | 0.257 | 0.676 | 0.612 | 0.983 | 0.598 | 0.562 | 0.819 | 0.658 | 0.41
